Data reported in patent publication US9187411B2, “Leukotriene B4 antagonist compound” (Eli Lilly and Company, priority 2012, dated 2015).
pIC50, pKi: −log10 of the molar value. Where two headings read alike, the source gives them in different places.

Legend:
[1] = system: LTB4-induced phosphorylation of ERK in monocytes; test: Human pERK assay in whole blood; format: cell-based; details: Monocyte, 10 nM LTB4
Experimental: The ability of the compound of Example 2 to block LTB4-induced signaling through BLT1 was assessed in whole blood obtained from healthy human volunteers and from 129SvEv mice that are the model strain for preclinical AAA efficacy evaluation.
Whole blood is collected from human donors in 10 mL K2 ethylenediaminetetraacetic acid (EDTA) vacutainer tubes (BD Biosciences). Aliquots of whole blood are pre-warmed at 37° C. for 20 min. 10 point dose response curves of test compounds are assayed at final concentrations of 20 nM-10 μM. 10 point ½ serial dilutions of compound at 1000× of final assayed concentration are prepared in DMSO. Compound is then diluted to 10× in Dulbecco's Phosphate Buffered Saline (DPBS) (DMSO concentration is now 1%). 10 μL of compound dilutions (at 10× in DPBS) or 1% DMSO in DPBS are added to wells of a 2.0 mL volume 96 deep well plate (Nunc) and placed in 37° C. heat block.
Immediately thereafter, 80 μL whole blood is added and incubated for 20 min at 37° C. […] Samples are warmed to room temperature and analyzed on a Beckman Coulter FC500 flow cytometer. […] Data are analyzed with WinList software (Verity Software House) to determine mean and median fluorescent intensity values for pERK-PE from monocyte population.

[2] = target: T1, hBLT1 (Homo sapiens, UniProt Q15722); test: [3H]-LTB4 binding assay in hBLT1 containing membranes; details: [3H]-LTB4 displacement, hBLT1/CHO-K1 membranes, Ki = IC50/2.7
T1 construct: expressed in transfected cells; membrane preparation
T1 sequence (Q15722 whole entry): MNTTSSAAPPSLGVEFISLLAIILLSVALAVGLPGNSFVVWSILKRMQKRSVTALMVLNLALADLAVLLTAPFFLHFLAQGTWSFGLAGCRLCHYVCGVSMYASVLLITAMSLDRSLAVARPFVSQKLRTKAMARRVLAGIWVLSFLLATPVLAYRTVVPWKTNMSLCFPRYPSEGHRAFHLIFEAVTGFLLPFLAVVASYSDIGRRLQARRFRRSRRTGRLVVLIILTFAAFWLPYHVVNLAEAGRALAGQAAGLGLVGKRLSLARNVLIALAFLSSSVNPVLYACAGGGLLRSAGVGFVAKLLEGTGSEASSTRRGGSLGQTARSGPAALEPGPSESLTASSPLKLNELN
Experimental: [^3H]-LTB4 and known BLT1 and BLT2 antagonists are used to generate LTB4 displacement curves and IC50 values for compounds of the present invention. Receptor inhibition by compounds of the present invention is determined relative to BLT1 inhibitor and BLT2 inhibitor reference molecules to obtain percent efficacies.
hBLT1 Test Compound Preparations: For hBLT1 assays, test compounds are prepared in DMSO to make up a 10 mM stock solution. […]
hBLT1/CHO-K1 Stable Xcell Line Preparations: Human BLT1 receptor DNA (National Center for Biotechnology Information (NCBI), Reference Sequence NM_181657) is synthesized and cloned into expression vector pcDNA3.1/Hygro(+) (Invitrogen V87020). […] Single clones are isolated and screened for BLT1 expression and function using Western Blot analysis and Fluorometric Imaging Plate Reader (FLIPR®) calcium release assay. […]
[^3H]-LTB4 (30 μL of 1.3 nM, PerkinElmer NET-852) is aliquoted into a 96-well Millipore Multiscreen-filter binding plate (catalogue number MAFBNOB10) which is pre-wetted with Buffer A (50 mM HEPES pH 7.4, 10 mM MgCl2, 10 mM NaCl, 10% glycerol, 1% BSA). […] The plate is allowed to sit for 16 h and then read on a Packard Instrument Company Topcount® for 1 min. […] The IC50s are converted to Ki values by dividing by 2.7 (previously calculated). […]

**Q.** What does the source list for `CCCc1c(NC(=O)CC(C)(C)C(=O)[O-])cccc1OCCCOc1cc(O)c(-c2ccc(F)cc2)cc1CC.[Na+]` [Example 2, Sodium 4-[[3-[3-[2-ethyl-4-(4-fluorophenyl)-5-hydroxy-phenoxy]propoxy]-2-propyl-phenyl]amino]-2,2-dimethyl-4-oxo-butanoate]?
**A.** pIC50 [1]: 6.09; pKi ([2]; read-out: absolute Ki): 8.26; pKi ([2]; read-out: relative Ki): 7.98
